Reference: patent US7538090B1, “Exogenous surfactant protein B mimic” (Los Angeles Biomedical Research Institute at Harbor-UCLA …, priority 2004, dated 2009)
“Also recorded” adds a separate entry of the source.

Key:
lavaged rat model of RDS = assay: Oxygenation response in lavaged rat model of RDS; type: in vivo; conditions: for in vivo activity in the rat RDS model system: FIGS. 6A and 6B (oxygenation and dynamic compliance)
Text: FIG. 6A illustrates an example of an oxygenation response of a lavaged rat model of RDS comparing INFASURF™, a known effective animal based (cow lung lavage that includes surfactant lipids and native Cow SP-B and SP—C proteins) supplement formulation (—◯—), pig native surfactant B in INFASURF™ lipids (—Δ—), Mini-B peptide in simulated INFASURF™ lipids (—▪—), the C-terminal domain of SP-B (residues 63-78) in the oxidized (--♦--) and reduced format (—∇--), a serine derivative the C-terminal domain of SP-B (residues 63-78) with cationic arginines (R) replaced with serine residues, in oxidized (—◯--) and (—∇—) format, the N-terminal domain of SP-B (residues 11 to 25 of native SP-B) in the monomer (—□—) and a dimer (—●--) conformation and ISPL alone (—Δ—). […] A Mini-B construct also compares favorably with the commercial preparation INFASURF™ that contains both the native SP-B and SP—C protein.
(§1) The activity of a Mini-B construct is very similar to that of the commercial preparation INFASURF™ that includes equimolar amounts of native SP-B in native lung surfactant lipids and native SP—C proteins typically used in present RDS therapies.

[1] = tested on: Rat RDS animal model system; assay: Dynamic compliance measurements in the Rat RDS animal model system; type: in vivo; conditions: peptide in simulated INFASURF lipids (ISPL), FIG. 6B
Text: FIG. 6B represents dynamic compliance measurements (a measure of lung mechanical plasticity) in the Rat RDS animal model system comparing INFASURF™ replacement formulation, pig native surfactant B in INFASURF™ lipids (—◯—), a Mini-B construct in simulated INFASURF™ lipids (—▪—), the C-terminal domain of SP-B (residues 63-78) in the oxidized (--♦--) and reduced (—∇--) format, a serine derivative the C-terminal domain of SP-B (residues 63-78) with cationic arginines (R) replaced with serine residues, in oxidized (—◯--) and (—∇—) format, the N-terminal domain of SP-B (residues 11 to 25 of native SP-B) in the monomer (—□—) and dimer (—●--) conformation and ISPL alone (—Δ—).
as §1

[2] = Langmuir trough surface activity (surface pressure upon compression, respreading); type: physicochemical; conditions: in ISPL lipids vs lipids alone, FIG. 8, 9
Text: Langmuir trough measurements of a Mini-B construct in ISPL lipids are represented in FIG. 8. The peptide at two different concentrations is compared to lipids […]. Lipids alone on the Langmuir trough show very little change in surface pressure with compression of the air-water interface film. […] Higher concentrations of a Mini-B construct in the lipids further enhance the surface activity of the preparation and show the characteristic chances in surface pressure as a function of compression/decompression of the lipid-peptide surface film that are associated with optimal in vitro activity typical of lung surfactant preparations containing SP-B native protein.
FIG. 9 illustrates Langmuir trough measurements of a Mini-B construct in ISPL. The construct was measured at a single concentration to show the consistent pressure dependent reproducibility of the construct in the lipids that is an important criteria of an effective lung surfactant dispersion. Lipids alone on the Langmuir trough show very little change in surface pressure with compression of the air-water interface film. […]

[3] = Surface shear viscosity measurements in ISPL lipid dispersion; type: physicochemical; conditions: over surface pressures and compression-expansion cycles, FIG. 7
Text: Surface shear viscosity measurements of a Mini-B construct in a simulated INFASURF™ lipid dispersion ISPL (cow lung lavage lipids) is represented in FIG. 7.

[4] = Brewster Angle Microscope images of monolayer surfaces on the Langmuir trough; type: physicochemical; conditions: Mini-B-ISPL lipids vs lipids alone; BAM images, FIG. 11
Text: Brewster Angle Microscope images of monolayer surfaces of Mini-B-ISPL lipids versus lipids alone on the Langmuir trough as a fimcfion of surface pressure is represented in FIG. 11. […] This Mini-B induced lipid aggregation in monolayers is typical of the effect of native surfactant protein B and surfactant B type peptides.
Brewster Angle Microscope images of monlayer surfaces of Mini-B-synthetic cow lung lipids compared with the commercial surfactant preparation INFASURF™ that contains native SP-B and SP-C proteins is represented in FIG. 12. Preparations containing Mini-B aggregate lipids were similar to the commercial surfactant preparation.

| Substance | in vivo activity in the rat RDS model system (lavaged rat model of RDS) | oxygenation response (lavaged rat model of RDS; lavaged rat model of RDS, peptide in simulated INFASURF lipids (ISPL), FIG. 6A) | dynamic compliance [1] | surface activity (surface pressure as a function of film compression) [2] | shear surface viscosity [3] | lipid aggregation in monolayers [4] |
| --- | --- | --- | --- | --- | --- | --- |
| CWLCRALIKRIQAMIPKGGRMLPQLVCRLVLRCS [Mini-B, disulfide stabilized 34 residue cyclic peptide joining SP-B residues 8 to 25 and 63 to 78] | exceeds that observed for native pig SP-B in synthetic surfactant lipids | outperforms all of the peptide segments of Mini-B separately; also recorded: closely parallels the oxygenation response that is observed for full-length native SP-B protein | performs very nearly as well as the commercial preparation | enhances the surface activity | remains constant at a large range of surface pressures | aggregate |
| B11-25: N-terminal domain of SP-B (residues 11 to 25 of native SP-B) (CRALIKRIQAMIPKG; Pulmonary surfactant-associated protein B; UniProt P07988 211-225, looked up, fragment) [reference compound] | relatively ineffective in vivo activity | – | – | – | – | – |
| B63-78: C-terminal domain of SP-B (residues 63-78) (GRMLPQLVCRLVLRCS; Pulmonary surfactant-associated protein B; UniProt P07988 263-278, looked up, fragment) [reference compound] | relatively ineffective in vivo activity | – | – | – | – | – |
